Consider three compounds from PMC10177380 (Cancers, 2023).

As usually defined, the GI50 is the concentration that inhibits growth by half.

Where “and” joins values, the source holds several entries; their conditions need not be identical. Equal entries are not always repeated. Where two headings read alike, the source gives them in different places.

For series [1], the system named is SJG2 glioblastoma. The series can be described thus: MTT growth inhibition, 72 h, SJG2. The format is cell-based.
For series [2], the system named is BE2C neuroblastoma. The series can be described thus: MTT growth inhibition, 72 h, BE2C. The format is cell-based. The settings on record: for GI50: BE2C, MTT, 72 h.
Series [3] deals with MCF7 breast. The series can be described thus: MTT growth inhibition, 72 h, MCF7. The settings on record: for GI50: MCF7, MTT, 72 h. The series is classed as cell-based.
Series [4] relates to Du145 prostate. The series can be described thus: MTT growth inhibition, 72 h, Du145. The series is classed as cell-based. The settings on record: for GI50: Du145, MTT, 72 h.
Series [5] concerns A431 skin. The series can be described thus: MTT growth inhibition, 72 h, A431. The format is cell-based.
Series [6] can be described thus: Reduction with ascorbic acid (AsA) in PBS followed by 1H-NMR and 1D-195Pt-NMR. The series is classed as physicochemical. The settings on record: estimated 100% reduction, PBS in D2O, 37 °C. How it is done: The reduction behaviour of 1–6 was probed via ^1H-NMR and 1D-^195Pt-NMR spectroscopy, as previously described (see Supplementary Materials).
The reduction behaviour of 1–6 was monitored by ^1H-NMR and 1D-^195Pt-NMR spectroscopy using previously established methods. Prior to the reduction measurements, each metal complex was dissolved with PBS in D2O only.
Based on the initial 1D-^195Pt-NMR spectra acquired (Figures S62 and S63), the structural integrity of the complexes was retained, and no signs of reduction were observed, thus also confirming that the PBS had no effect on the complexes. Subsequently, AsA was added in each solution containing the metal complex, PBS and D2O. Then, sequential ^1H-NMR experiments were undertaken for 1 h, followed by final 1D-^195Pt-NMR experiments measured within the regions of 400 and −2800 ppm (Figures S64–S75). The approximate time points for 1–6 at which an estimated 50 and 100% reduction had occurred, in the presence of AsA, as represented by T50% and T100%, are summarised in Table 8.
A sequence of 1H-NMR experiments was carried out for 1 h at 37 °C, followed by 1D-195Pt-NMR within the regions of –2800 and 400 ppm. An amount of 10 mM PBS (~7.4 pH) was transferred to a vial and reduced to dryness through rotary evaporation. AsA (~1 mg) was combined with the metal complex (~5 mg) and transferred to the vial containing the dried PBS. 600 μL of D2O was then added to the vial to dissolve the complex, AsA and the PBS together. Each reaction was followed at 37 °C until the complete reduction […]
The cell lines tested were: HT29 colon, U87 glioblastoma, MCF-7 breast, A2780 ovarian, H460 lung, A431 skin, Du145 prostate, BE2-C neuroblastoma, SJ-G2 glioblastoma, MIA pancreas, ADDP ovarian variant, and the non-tumour derived MCF10A breast line. In […]
agents were prepared in DMSO (30 mM stock solutions) and stored at −20 °C until use.
All cell lines were cultured in a humidified atmosphere 5% carbon dioxide at 37 °C. The cancer cell lines were maintained in Dulbecco’s modified Eagle’s medium (DMEM) (Trace Biosciences, Sydney, NSW, Australia) supplemented with 10% foetal bovine serum, 10 mM sodium bicarbonate penicillin (100 IU mL−1), streptomycin (100 μg mL−1) and glutamine (4 mM). The non-cancer MCF10A cell line was cultured in DMEM:F12 (1:1) cell culture media, 5% heat inactivated horse serum, supplemented with penicillin (50 IU mL−1), streptomycin (50 μg mL−1), 20 mM 4-(2-hydroxyethyl)-1-piperazineethanesulfonic acid (HEPES), L-glutamine (2 mM), epidermal growth factor (20 ng mL−1), hydrocortisone (500 ng mL−1), cholera toxin (100 ng mL−1) and insulin (10 μg mL−1). Cytotoxicity was determined by plating cells in duplicate in […] medium at a density of 2500 – 4000 cells per well in 96 well plates. On day 0 (24 h after plating) when the cells were in logarithmic growth, 100 μL of medium with or without the test agent

Series [7] has as its system U87 glioblastoma. The series can be described thus: MTT growth inhibition, 72 h, U87. The series is classed as cell-based.
The test system of series [8] is MCF10A / Du145. The series can be described thus: Selectivity cytotoxicity index (GI50 in MCF10A/GI50 in Du145). The settings on record: GI50 in MCF10A/GI50 in Du145.
Series [9] deals with MIA pancreas. The series can be described thus: MTT growth inhibition, 72 h, MIA. The series is classed as cell-based.
Series [10] relates to non-tumour derived MCF10A breast line. The series can be described thus: MTT growth inhibition, 72 h, MCF10A. The format is cell-based.
Series [11] deals with H460 lung. The series can be described thus: MTT growth inhibition, 72 h, H460. The settings on record: for GI50: H460, MTT, 72 h. The format is cell-based.
In series [12] the test system is HT29 colon cells. The series can be described thus: ROS production, DCFDA/H2DCFDA cellular ROS assay. The settings on record: treatment at GI50 concentration (TBHP positive control 20 μM). The format is cell-based, human. Here is the method:
To determine the presence of ROS in treated cells, a DCFDA/H2DCFDA-cellular ROS Assay Kit (Abcam, Cambridge, MA, USA) was utilised, as previously reported. The ROS potential of platinum(II) precursors and platinum(IV) scaffolds, which were determined using the same method, were also presented in this study for comparison.
Additionally, the ROS potential of the platinum(II) precursors and platinum(IV) scaffolds was determined previously and was presented here to allow for comparison (Table 10 and Figure 13). […] Treatment with the complexes and ligands was completed at each specific GI50 concentration. […]
dimethylthiazol-2-yl]-2,5-diphenyltetrazolium bromide) assay and absorbance was read at 540 nm. An eight-point dose response curve was produced from which the GI50 value was calculated, representing the drug concentration at which cell growth was inhibited by 50% based on the difference between the optical density values on day 0 and those at the end of drug exposure.
4. Reactive Oxygen Species (ROS) Potential
A total of 25,000 cells/mL of HT29 cells in DMEM were seeded in 96-well plates. Cells were washed with 1X kit buffer, and then stained with 25 μM 2’,7’-dichlorofluorescein diacetate (DCFH-DA) and incubated for 45 min. DCFH-DA was then removed, and cells were then re-washed with 1X kit buffer, after which phenol red free media was added.
Cells were then treated with a GI50 drug concentration for each complex. The plates were directly scanned to measure fluorescence (relative fluorescence units (RFU)) at different time points using the Glo-Max®-Multimode microplate reader (Promega Corporation, Alexandra, VIC, Australia) at an excitation/emission of 485/535 nm. […]

Series [13] has as its system multiple cell lines. The series can be described thus: MTT growth inhibition, over all cell lines tested. The settings on record: for GI50: mean over all cell lines tested, read-out: Mean GI50 Values. The series is classed as cell-based.
Series [14] relates to A2780 ovarian. The series can be described thus: MTT growth inhibition, 72 h, A2780. The series is classed as cell-based.
In series [15] the test system is ADDP ovarian variant (cisplatin-resistant A2780 clone). The series can be described thus: MTT growth inhibition, 72 h, ADDP. The series is classed as cell-based. The settings on record: for GI50: ADDP, MTT, 72 h.

As to `COc1ccc2c(c1)c(CC(=O)OCC(=O)[O][Pt-2]13([OH])([NH2+][C@H]4CCCC[C@@H]4[NH2+]1)[n+]1cccc4ccc5ccc[n+]3c5c41)c(C)n2C(=O)c1ccc(Cl)cc1` [Complex 4, [Pt^IV(phen)(SS-DACH)(ACE)(OH)]^2+], the GI50 in [1] was determined as 1450 ± 104 nM; in series [2], 1300 ± 150 nM; in [3], 840 ± 390 nM; in series [4], 150 ± 40 nM; in series [5] it was 930 ± 490 nM; in [7], 1720 ± 140 nM. The concentration for 50% growth inhibition (GI50) amounted to 490 ± 36 nM in series [9]; 360 ± 29 nM in series [10]; 610 ± 80 nM in series [11]; 735 ± 58 nM in series [13]; 350 ± 47 nM in series [14]; 330 ± 27 nM in [15]. For the same compound, the “fold decrease of GI50 relative to the platinum(IV) scaffold” value in series [3] came out at 19 fold. Also, the “Reduction Times T100%” value in [6] was 10 to 15 min. In addition, the “Selectivity Cytotoxicity Index (SCI)” value in [8] is on record as 2.40. For the same compound, the “ROS Production” value is 303 ± 8 RFU in [12] (HT29, 24 h); 298 ± 17 RFU in series [12] (HT29, 48 h); 168 RFU and 168 ± 15 RFU in series [12] (HT29, 72 h). In addition, the “fold difference of mean GI50 compared to platinum(II) precursor” value in series [13] is given as 1- to 2 fold.
For the compound `COc1ccc2c(c1)c(CC(=O)OCC(=O)[O][Pt-2]13([OH])([NH2+][C@H]4CCCC[C@@H]4[NH2+]1)[n+]1cccc4cc(C)c5ccc[n+]3c5c41)c(C)n2C(=O)c1ccc(Cl)cc1` [Complex 5, [Pt^IV(5-Mephen)(SS-DACH)(ACE)(OH)]^2+], the GI50 came out at 200 ± 21 nM in series [1]; 250 ± 33 nM in series [2]; 39 ± 18 nM in series [3]; 1.3 ± 0.4 nM in [4]; 60 ± 45 nM in series [5]; 140 ± 8 nM in [7]. The GI50 in [9] came out at 29 ± 14 nM; in series [10], 20 ± 5 nM; in series [11], 43 ± 8 nM; in series [13], 70 ± 15 nM; in [14], 30 ± 12 nM; in series [15], 9.3 ± 2 nM. In addition, in series [2], the “fold decrease of GI50 relative to the platinum(IV) scaffold” value is 5.6 fold. Besides, in series [4], the “fold more potent than carboplatin” value is 11,540 fold. Besides, the “fold more potent than cisplatin” value was “at least 920 fold” in series [4] and 3000 fold in series [15]. In series [4], the “fold more potent than its platinum(II) precursor” value is recorded as 17 fold. In addition, in [4], the “fold more potent than oxaliplatin” value is 2230 fold. Besides, the “Reduction Times T100%” value in series [6] is 10 to 15 min. Further, in series [8], the “Selectivity Cytotoxicity Index (SCI)” value stood at 15.4. Also, the “ROS Production” value is 313 ± 11 RFU in series [12] (HT29, 24 h); 305 ± 10 RFU in series [12] (HT29, 48 h); 192 RFU and 192 ± 7 RFU in series [12] (HT29, 72 h).
Regarding `COc1ccc2c(c1)c(CC(=O)OCC(=O)[O][Pt-2]13([OH])([NH2+][C@H]4CCCC[C@@H]4[NH2+]1)[n+]1cccc4c(C)c(C)c5ccc[n+]3c5c41)c(C)n2C(=O)c1ccc(Cl)cc1` [Complex 6, [Pt^IV(5,6-Me2phen)(SS-DACH)(ACE)(OH)]^2+], the GI50 is 130 ± 25 nM in series [1]; 160 ± 19 nM in series [2]; 12 ± 6 nM in [3]; 0.22 ± 0.1 nM in series [4]; 16 ± 12 nM in series [5]; 28 ± 3 nM in series [7]. In addition, the GI50 was found to be 7.8 ± 4 nM in series [9]; 3.4 ± 1 nM in series [10]; 16 ± 2 nM in series [11]; 32 ± 7 nM in series [13]; 10 ± 4 nM in series [14]; 1.3 ± 0.5 nM in series [15]. Further, the “fold more potent than its platinum(II) precursor” value in series [4] (Du145) is recorded as about 21 fold. The “Reduction Times T100%” value in series [6] was 5 min. Besides, in series [8], the “Selectivity Cytotoxicity Index (SCI)” value turned out to be 15.5. Besides, in [11], the “fold more potent than the platinum(IV) scaffold” value is about 12 fold. The “ROS Production” value in [12] (HT29, 24 h) was 344 ± 17 RFU; in [12] (HT29, 48 h), 312 ± 13 RFU; in [12] (HT29, 72 h), 202 RFU and 202 ± 10 RFU.
